For experiment [1], the system named is SMN2-luciferase reporter construct. Kind of experiment: SMN2-luciferase splicing reporter luminescence assay in C33A cells. It counts as cell-based, human. The conditions noted are these: for luminescence from the SMN2-luciferase reporter construct: screen at 10 μM, ~48 hr; for SMN2 luminescence/SMN1 luminescence: highest point of the curve of increase in SMN2-luciferase luminescence minus increase in SMN1-luciferase luminescence (treated/control), dilution series max 10 uM. On the procedure: (§1) In a screen to identify compounds capable of enhancing the inclusion of exon 7 in SMN2 mRNA, cells of the human cervical carcinoma cell line C33A (ATCC#HTB-31) were stably transformed with an SMN fragment/luciferase reporter gene construct that incorporated exons 6-8 of SMN1 or SMN2 for use in a high-throughput screening assay. These cells were cultured in Dulbecco's Modified Eagle's Medium (DMEM) with 10% Fetal Bovine Serum (Sigma F 2442), 50 units/mL penicillin 50 μg/mL streptomycin sulfate and 400 mg/L G418 (i.e. Geneticin, Gibco, cat. No. 11811-031). The assay medium used to perform the luciferase assay was identical to the growth medium except the G418 selection agent was omitted. To perform the luciferase assay, a single reagent (25 mM glycylglycine, 15 mM magnesium sulfate, 4 mM EGTA, adjusted to pH 7.85, to which is added 10 μM D-luciferin (Sigma L9504), 10 mM dithiothreitol (DTT, Roche Molecular Biochemicals 100034), 2 mM adenosine 5′-triphosphate (ATP, Sigma A7699), 50 μM CoenzymeA, sodium salt (Sigma C 3144) and 1.5% Triton X-100) was used to lyse the cells and to initiate the luciferase reaction.
(§2) Using this cell-based luminescence assay, a screen was performed to identify compounds that modulate SMN splicing. Stably transfected C33A cells (˜35-40 M cells/flask) were cultured, then removed from T-175 culture flasks with 3 mL trypsin, and quenched with 7 mL assay medium. The cells were spun down and re-suspended in assay medium to a concentration of ˜200,000 cells/mL. Cells were immediately seeded in 384-well assay plates (Nalge Nunc white plates, #164610) 57 μL/well for a cell density of 11,000 cells/well. Compounds from a library obtained from the National Institute of Neurological Disorders and Stroke (NINDS) were added to the cells to a final concentration of 10 μM (diluted with assay medium by 1000× from the 10 mM stock solution in DMSO). The cells were incubated with the test compounds at 37° C. for ˜48 hr. A Zymark Sciclone ALH was used for cell seeding and compound addition. After incubation, the assay plates were cooled to room temperature for ˜10-60 minutes. The medium and compounds were aspirated from the wells, followed by 6 rinse/aspirate cycles with a PBS solution. 53 μL of the luciferase assay reagent was added and the plate was immediately transferred to a luminescence plate reader. The plate was shaken for 30 minutes prior to reading. The plate processing steps were performed on an integrated Packard Minitrak/Sidetrak platereader.
(§3) To analyze the data, the dark count background was first subtracted from all luminescence readings. The signal from each compound treated well was divided by the average of 48 control wells on the same 384-well plate. Each compound library plate was tested in triplicate with each of the two cell lines, and the entire assay was repeated on two separate occasions, yielding six readings for each compound for each cell line. The highest and lowest of the six normalized readings were dropped and the remaining four readings averaged. These average values of compound-treated luminescence versus control luminescence are denoted “Xnorm(y)”, where X indicates the cell line, SMN1-luciferase or SMN2-luciferase, and y represents the compound. The difference of [SMN2norm(y)−SMN1norm(y)] measures the selective change in SMN2-luciferase expression versus change in SMN1 luciferase production upon treatment with compound y. This is the final score that is output.
(§4) These dilutions were created with a Zymark Sciclone ALH Z-8. Once created, the assay was performed as described for the screening process. Concentrations required to achieve 50% of the maximally achievable effect for each compound (“EC50”) were calculated using Xlfit (IDBS).
On the technique in general: A reporter such as luciferase makes a cellular process visible.

A further experiment concerns SMN1-luciferase control. Kind of experiment: SMN1-luciferase control splicing reporter luminescence assay in C33A cells. It counts as cell-based, human. On the procedure:
as §1, §2, §3, §4

We go through 29 compounds from patent publication US20090031435A1, “SMA Therapy and Cell Based Assay” (priority 2002, published 2009).

As for `CC(C(=O)O)c1ccc(C(=O)c2cccs2)cc1` (stereo not drawn) [suprofen], the “luminescence from the SMN2-luciferase reporter construct” value in experiment [1] was “None of these compounds resulted in increased luminescence”.

Turning to `O=C1NCc2ccccc21` [1H-isoindol-1-one, 2,3-dihydro-], in experiment [1], the “Effect on splicing of SMN2-luciferase in C33A cells” value is on record as “None”. Further, in the experiment with SMN1-luciferase control, the “Effect on splicing of SMN1-luciferase control in C33A cells” value is on record as “None”.

For `CC(C(=O)O)c1cccc(Oc2ccccc2)c1` (stereo not drawn) [fenoprofen], in experiment [1], the “luminescence from the SMN2-luciferase reporter construct” value is given as “None of these compounds resulted in increased luminescence”.

Take `CN1C(=O)c2ccc(-c3ccccc3)cc2C1(O)C(C)(C)C` (stereo not drawn) [1-tert-butyl-1-hydroxy-2-methyl-6-phenyl-3-isoindolinone]: the “Effect on splicing of SMN2-luciferase in C33A cells” value in experiment [1] was “None”.

With `O=C1c2ccccc2C(O)(c2ccc(Cl)cc2)N1OC1CCCCO1` (stereo not drawn) [3-(4-chlorophenyl)-3-hydroxy-2-(tetrahydropyran-2-yloxy)-1-isoindolinone], the “Effect on splicing of SMN2-luciferase in C33A cells” value in experiment [1] is “None”.

Regarding `O=C(O)CCC(C(=O)O)N1Cc2ccccc2C1=O` (stereo not drawn) [2-Phthalimidino-glutaric acid], the “Effect on splicing of SMN2-luciferase in C33A cells” value in experiment [1] was “None”. In the experiment on SMN1-luciferase control, the “Effect on splicing of SMN1-luciferase control in C33A cells” value is “None”.

For “Methyl 2-[4-(1,3-dioxo-2,3-dihydro-1H-isoindol-2-yl)phenyl . . .”, the “Effect on splicing of SMN2-luciferase in C33A cells” value in experiment [1] is reported as “None”.

Take `COc1ccc2c(c1)c(CC(=O)O)c(C)n2C(=O)c1ccc(Cl)cc1` [1-(4-Chlorobenzoyl)-5-methoxy-2-methyl-3-indoleacetic acid]: in experiment [1], the “Effect on splicing of SMN2-luciferase in C33A cells” value is “None”. Further, the “Effect on splicing of SMN1-luciferase control in C33A cells” value in the experiment with SMN1-luciferase control is “None”.

For the compound `Cc1ccc(N2C(=O)c3ccccc3C2C(=O)c2ccc(O)cc2O)cc1` (stereo not drawn) [3-(2,4-hydroxybenzoyl)-2-(4-methylphenyl)-1-isoindolinone], the “Effect on splicing of SMN2-luciferase in C33A cells” value in experiment [1] is given as “None”.

On to `Cc1ccc(N2C(=O)c3ccccc3C2C(=O)c2cc(C)ccc2O)cc1` (stereo not drawn) [3-(2-hydroxy-5-methylbenzoyl)-2-(4-methylphenyl)-1-isoindolinone], for which the “Effect on splicing of SMN2-luciferase in C33A cells” value in experiment [1] is “None”.

`O=C(O)CCCN1C(=O)c2ccccc2C1=O` [2H-isoindol-2-butanoic, 1,3-dihydro-1,3-dioxo]: the “Effect on splicing of SMN2-luciferase in C33A cells” value in experiment [1] is reported as “None”. In the experiment with SMN1-luciferase control, the “Effect on splicing of SMN1-luciferase control in C33A cells” value was “None”.

Consider `O=C1C=C2C(=CCOC2O)O1` (stereo not drawn) [Patulin, patulin], for which, in experiment [1], the “SMN2 luminescence/SMN1 luminescence” value is 0.7 and the “luminescence from the SMN2-luciferase reporter construct” value is on record as “increased luminescence”.

Take `CC(O)c1ccc(N2Cc3ccccc3C2=O)cc1` (stereo not drawn) [1H-isoindol-1-one, 2,3-dihydro-2-[4-91-hydroxyethyl)phenyl]]: the “Effect on splicing of SMN2-luciferase in C33A cells” value in experiment [1] is reported as “Increased”. In addition, the “Effect on splicing of SMN1-luciferase control in C33A cells” value in the experiment with SMN1-luciferase control was “Increased”.

`CC(C(=O)O)c1ccc(-c2ccccc2)c(F)c1` (stereo not drawn) [flurbiprofen]: the “luminescence from the SMN2-luciferase reporter construct” value in experiment [1] is “None of these compounds resulted in increased luminescence”.

On to `CN1C(=O)c2ccccc2C1(O)C(C)(c1ccccc1)c1ccccc1` (stereo not drawn) [3-(1,1-diphenylethyl)-3-hydroxy-2-methyl-1-isoindolinone], for which, in experiment [1], the “Effect on splicing of SMN2-luciferase in C33A cells” value is reported as “None”.

Take `CO[C@@]1(NC(=O)Cc2cccs2)C(=O)N2C(C(=O)O)=C(COC(N)=O)CS[C@@H]21` [Cefoxitin sodium, cefoxitin sodium]: in experiment [1], the “SMN2 luminescence/SMN1 luminescence” value stood at 0.3 and the “luminescence from the SMN2-luciferase reporter construct” value is reported as “increased luminescence”.

On to “Methyl 2-[4-(1,3-dioxo-2,3-dihydro-1H-isoindol-2-yl)-3-me . . .”, for which, in experiment [1], the “Effect on splicing of SMN2-luciferase in C33A cells” value is listed as “None”.

In the case of `[O-][n+]1ccccc1[S-].[O-][n+]1ccccc1[S-].[Zn+2]` [Pyrithione zinc, pyrithione zinc], in experiment [1], the “SMN2 luminescence/SMN1 luminescence” value came out at 1.0 and the “luminescence from the SMN2-luciferase reporter construct” value was “increased luminescence”.

As for `O=C(O)C(Cc1ccccc1)N1Cc2ccccc2C1=O` (stereo not drawn) [2H-isoindol-2-acetic acid, 1,3-dihydro-1-oxo-alpha-(phenylmethyl)- . . .], the “Effect on splicing of SMN2-luciferase in C33A cells” value in experiment [1] is “None”. The “Effect on splicing of SMN1-luciferase control in C33A cells” value in the experiment on SMN1-luciferase control is “None”.

As for `Cc1ccc(N2C(=O)c3ccccc3C2C(=O)c2cc(O)ccc2O)cc1` (stereo not drawn) [3-(2,5-hydroxybenzoyl)-2-(4-methylphenyl)-1-isoindolinone], in experiment [1], the “Effect on splicing of SMN2-luciferase in C33A cells” value is “None”.

In the case of `O=C1c2ccccc2CN1c1ccccc1` [1H-isoindol-1-one, 2,3-dihydro-2-phenyl], in experiment [1], the “Effect on splicing of SMN2-luciferase in C33A cells” value is “None”. Also, the “Effect on splicing of SMN1-luciferase control in C33A cells” value in the experiment with SMN1-luciferase control is “None”.

For `CC(C)Cc1ccc(C(C)C(=O)O)cc1` (stereo not drawn) [ibuprofen], in experiment [1], the “luminescence from the SMN2-luciferase reporter construct” value was “None of these compounds resulted in increased luminescence”.

Take `CCC(CC)(CC)C1(O)c2ccccc2C(=O)N1C` (stereo not drawn) [3-(1,1-diethylpropyl)-3-hydroxy-2-methyl-1-isoindolinone]: in experiment [1], the “Effect on splicing of SMN2-luciferase in C33A cells” value was “None”.

Regarding `CC(=O)Nc1ccc(O)cc1` [acetominophen], the “luminescence from the SMN2-luciferase reporter construct” value in experiment [1] is given as “None of these compounds resulted in increased luminescence”.

`NC12CC3CC(CC(C3)C1)C2` [amantadine]: in experiment [1], the “SMN2 luminescence/SMN1 luminescence” value stood at 0.3 and the “luminescence from the SMN2-luciferase reporter construct” value is “increased luminescence”.

For `CC(=O)Oc1ccccc1C(=O)O` [aspirin], the “luminescence from the SMN2-luciferase reporter construct” value in experiment [1] is recorded as “None of these compounds resulted in increased luminescence”.

Turning to `CC(C(=O)O)c1cccc(C(=O)c2ccccc2)c1` (stereo not drawn) [ketoprofen], the “luminescence from the SMN2-luciferase reporter construct” value in experiment [1] is “None of these compounds resulted in increased luminescence”.

With `Cc1ccc(C(CC(=O)O)N2Cc3ccccc3C2=O)cc1` (stereo not drawn) [2H-isoindol-2-propanoic acid, 1,3-dihydro-beta-(4-methylphenyl)-1-oxo], in experiment [1], the “Effect on splicing of SMN2-luciferase in C33A cells” value is “None”. The “Effect on splicing of SMN1-luciferase control in C33A cells” value in the experiment with SMN1-luciferase control is reported as “None”.

Regarding `CC[C@@]1(O)C(=O)OCc2c1cc1n(c2=O)Cc2cc3ccccc3nc2-1` [Camptothecin, camptothecin], in experiment [1], the “SMN2 luminescence/SMN1 luminescence” value stood at 0.4 and the “luminescence from the SMN2-luciferase reporter construct” value is given as “increased luminescence”.
